Entries after “also recorded” stand apart in the source; their conditions may differ.
Tests used:
[1] = system: intubated rodents, carotid artery occlusion model; assay: Carotid artery occlusion model, Speckle laser Doppler, intubated rodents; assay type: in vivo
Method: (§1) In intubated rodents, the inventors have shown that cerebral blood flow increases by 100% within 60 minutes of intranasal nitric oxide delivery.
Increase in cerebral blood flow is attributable to focal intranasal or intra-oral effect of nitric oxide rather than to systemic absorption of the gas. […] The effect on cerebral blood flow during intranasal delivery of nitric oxide with concomitant air inhalation into the lungs is therefore a focal effect on intranasal and intracranial vasculature attributable specifically to nitric oxide. […] In a non-intubated patient, nitric oxide inhalation can be prevented by occluding the nasal cavity anterior or posterior to the site of gas delivery. This is achieved by means of an anterior occlusion device such a rigid member, an expandable member, a compressible member, a sponge, a porous member, a plug, a balloon, foam and/or combinations of the foregoing, which prevent inhalation through the nostrils while maintaining a high concentration of nitric oxide in the nasal cavity. A non-intubated patient may be allowed to inhale air into the lungs during nitric oxide delivery into the nasal cavity by an optional central lumen with the distal orifice beyond the sites of nasal gas delivery and occlusion device.

[2] = system: human with focal cerebral ischemia; assay: CT perfusion scanning before and after intranasal nitric oxide in intubated patients with cerebral ischemia; assay type: in vivo
[3] = system: intubated rodents; assay: Cerebral blood flow by cortical laser Doppler during intranasal nitric oxide in intubated rodents; assay type: in vivo
Method: as §1

[4] = system: humans (normal volunteers); assay: Tolerability of intranasal nitric oxide delivery in humans (normal volunteers); assay type: in vivo, human
Description: While nitric oxide may be given intranasally and without inhalation into the lungs to intubated, comatose individuals the tolerability of intranasal nitric oxide in awake humans has not previously been investigated. The inventors have tested the effect of nitric oxide in humans (normal volunteers) during intranasal delivery. […] Therefore it can easily be tolerated by awake, non-intubated patients.

[5] = Post Rx, one hour of intranasal non-inhaled nitric oxide

[N]=O [nitric oxide]
cerebral ischemia (FIG. 9) ([1]; Speckle laser Doppler tracing, intubated rodents): reduction
perfusion in the ischemic hemisphere ([1]; during the carotid occlusion and following ligature release): improved
Cerebral Blood Flow, Changes in ACA Watershed ([2]; Post Rx): Normalization,
Mean Transit Time, Changes in ACA Watershed ([2]; Post Rx): Normalization
increase in perfusion on L (ACA Watershed) ([2]; Post Rx versus Pre Rx, ischemic left hemisphere): 67% increase in
Cerebral Blood Flow, Left Hemisphere (ischemic) [2, 5]: 52
Cerebral Blood Flow, Right Hemisphere (normal) [2, 5]: 45
Mean Transit Time, Left Hemisphere (ischemic) [2, 5]: 6.0 s
Mean Transit Time, Right Hemisphere (normal) [2, 5]: 6.1 s
cerebral perfusion on CT perfusion scan ([2]; before and after treatment, human with focal cerebral ischemia): improvement; also recorded: augmentation of cerebral perfusion and normalization of regional perfusion abnormalities
cerebral blood flow (FIG. 8) ([3]; cortical laser Doppler, during intranasal administration): doubling
cerebral blood flow increase ([3]; within 60 minutes of intranasal delivery, non-inhaled): 100%
sensation during intranasal delivery ([4]; concentrations up to 100 PPM, normal volunteers): does not elicit any sensation
tolerability of gas treatment ([4]; high concentration, delivered intra-nasally and without inhalation): tolerated
